Experimental data published in patent US9409952B2, “Peptide-compound cyclization method” (Chugai Seiyaku Kabushiki Kaisha, priority 2011, dated 2016).
Starred links: 1 amine or outer side, 2 acyl side, 3 side chain; linkers in the order of their positions; H or OH if unused. Positions of bridges follow the written chain, without caps; N, C: chain ends. Non-standard residues stand in square brackets, D forms with d. Residues, ends and D or L forms follow the SMILES beside them. *: point of attachment. X2 = O=C(C[C@H](N[*:1])C(F)(F)F)[*:2]; NMeF = CN[C@@H](Cc1ccccc1)C(=O)O; Aoc(2) = CCCCCC[C@H](N)C(=O)O; NMeL = CN[C@@H](CC(C)C)C(=O)O; NMeS = CN[C@@H](CO)C(=O)O; NMeA = CN[C@@H](C)C(=O)O; Piperidide = C1CCN(*)CC1; β3hA = C[C@H](N)CC(=O)O; Abu = CC[C@H](N)C(=O)O; Sar = CNCC(=O)O

How the values were obtained:
[1] = PAMPA (parallel artificial membrane permeability assay); type: in vitro ADME; details: PAMPA; membrane permeation rate (Pe); 50 mM MOPSO buffer pH 6.5 with 5.0% glycocholic acid, 37° C., 18 hours; read-out: iPAMPA Pe
Procedure, shortened: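 Artificial membrane was 10% (w/v) egg lecithin plus 0.5% (w/v) cholesterol in dodecane on a PVDF filter. A 10 mM DMSO stock was added at 0.5% (v/v) to donor buffer (50 mM MOPSO, pH 6.5, 5.0% glycocholic acid). After 18 h at 37 °C, LC/MS or LC/UV gave donor and acceptor levels for Pe.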

[2] = Metabolic stability in human hepatic microsome; type: in vitro ADME; details: microsomes, pH 7.4; human hepatic microsome, NADPH(+); read-out: CL NADPH(+)

Compound | Papp at 18 hours, 50 µM [1] | microsomal CLint at 1 uM [2]
CC(C)C[C@@H]1NC(=O)[C@H](CO)N(C)C(=O)[C@H](CC(C)C)N(C)C(=O)[C@H](CC(C)C)N(C)C(=O)[C@H](CC(C)C)N(C)C(=O)[C@@H](C)NC(=O)C[C@H](C)NC(=O)[C@H](CC(C)C)N(C)C(=O)[C@H](CC(C)C)NC(=O)[C@H](CC(C)C)N(C)C(=O)CN(C)C1=O [DP-639] (cyclo(L[NMeL][β3hA][dA][NMeL][NMeL][NMeL][NMeS]L[Sar][NMeL])) | 33 ×10⁻⁶ cm/s | 134 µL/min/mg
CC[C@@H]1NC(=O)[C@H](CC(C)C)N(C)C(=O)[C@H](CC(C)C)NC(=O)[C@H](CC(C)C)N(C)C(=O)CN(C)C(=O)C[C@H](C)NC(=O)[C@H](CO)N(C)C(=O)[C@H](CC(C)C)N(C)C(=O)[C@H](CC(C)C)N(C)C(=O)[C@H](CC(C)C)N(C)C(=O)[C@@H](CC(C)C)NC1=O [DP-641] (cyclo([Abu][dL][NMeL][NMeL][NMeL][NMeS][β3hA][Sar][NMeL]L[NMeL])) | 46 ×10⁻⁶ cm/s | 91 µL/min/mg
CC(C)C[C@@H]1NC(=O)[C@H](CC(C)C)N(C)C(=O)[C@H](C(C)C)NC(=O)[C@H](CC(C)C)N(C)C(=O)CN(C)C(=O)[C@H](CC(C)C)NC(=O)[C@H](CO)N(C)C(=O)[C@H](CC(C)C)N(C)C(=O)[C@H](CC(C)C)N(C)C(=O)C[C@H](C)NC(=O)[C@@H](CC(C)C)NC1=O [DP-642] (cyclo(L[Sar][NMeL]V[NMeL]L[dL][β3hA][NMeL][NMeL][NMeS])) | 32 ×10⁻⁶ cm/s | 65 µL/min/mg
CC(C)C[C@@H]1NC(=O)C[C@H](C)NC(=O)[C@H](C(C)C)NC(=O)[C@H](CC(C)C)N(C)C(=O)CN(C)C(=O)[C@H](CC(C)C)NC(=O)[C@H](CO)N(C)C(=O)[C@H](CC(C)C)N(C)C(=O)[C@H](CC(C)C)N(C)C(=O)[C@H](CC(C)C)N(C)C(=O)[C@@H](CC(C)C)NC1=O [DP-643] (cyclo(L[Sar][NMeL]V[β3hA]L[dL][NMeL][NMeL][NMeL][NMeS])) | 29 ×10⁻⁶ cm/s | 24 µL/min/mg
CC(C)C[C@@H]1NC(=O)[C@H](CO)N(C)C(=O)[C@H](CC(C)C)N(C)C(=O)[C@H](CC(C)C)N(C)C(=O)[C@H](CC(C)C)N(C)C(=O)C[C@H](C)NC(=O)[C@H](C)NC(=O)[C@H](CC(C)C)N(C)C(=O)[C@H](CC(C)C)NC(=O)[C@H](CC(C)C)N(C)C(=O)CN(C)C1=O [DP-644] (cyclo(A[β3hA][NMeL][NMeL][NMeL][NMeS]L[Sar][NMeL]L[NMeL])) | 33 ×10⁻⁶ cm/s | 80 µL/min/mg
CCCCCC[C@@H]1NC(=O)[C@H](CO)N(C)C(=O)[C@H](CC(C)C)N(C)C(=O)[C@H](CC(C)C)N(C)C(=O)[C@H](CC(C)C)N(C)C(=O)[C@@H](C)NC(=O)[C@H](CC)NC(=O)[C@H](CC(C)C)N(C)C(=O)C[C@H](C)NC(=O)[C@H](CC(C)C)N(C)C(=O)CN(C)C1=O [DP-645] (cyclo([Abu][dA][NMeL][NMeL][NMeL][NMeS][Aoc(2)][Sar][NMeL][β3hA][NMeL])) | 49 ×10⁻⁶ cm/s | 74 µL/min/mg
CCCCCC[C@@H]1NC(=O)[C@H](CC(C)C)N(C)C(=O)C[C@H](C)NC(=O)[C@H](CC)NC(=O)[C@H](CO)N(C)C(=O)[C@H](CC(C)C)N(C)C(=O)[C@H](CC(C)C)N(C)C(=O)[C@H](CC(C)C)N(C)C(=O)[C@@H](C)NC(=O)[C@H](C)NC(=O)[C@H](CC(C)C)N(C)C1=O [DP-646] (cyclo(A[dA][NMeL][NMeL][NMeL][NMeS][Abu][β3hA][NMeL][Aoc(2)][NMeL])) | 29 ×10⁻⁶ cm/s | 139 µL/min/mg
CCCCCC[C@@H]1NC(=O)[C@H](CC(C)C)N(C)C(=O)CN(C)C(=O)[C@H](CC(C)C)NC(=O)C[C@H](C)NC(=O)[C@H](CC(C)C)N(C)C(=O)[C@H](CC(C)C)N(C)C(=O)[C@H](CC(C)C)N(C)C(=O)[C@@H](C)NC(=O)[C@H](CO)NC(=O)[C@H](CC(C)C)N(C)C1=O [DP-647] (cyclo([Aoc(2)][NMeL]S[dA][NMeL][NMeL][NMeL][β3hA]L[Sar][NMeL])) | 29 ×10⁻⁶ cm/s | 132 µL/min/mg
CCCCCC[C@@H]1NC(=O)[C@H](CO)N(C)C(=O)C[C@H](C)NC(=O)[C@H](CC(C)C)N(C)C(=O)[C@H](CC(C)C)N(C)C(=O)[C@@H](CC(C)C)NC(=O)[C@H](CC)NC(=O)[C@H](CC(C)C)N(C)C(=O)[C@H](C(C)C)NC(=O)[C@H](CC(C)C)N(C)C(=O)CN(C)C1=O [DP-648] (cyclo([Abu][dL][NMeL][NMeL][β3hA][NMeS][Aoc(2)][Sar][NMeL]V[NMeL])) | 53 ×10⁻⁶ cm/s | 109 µL/min/mg
CC(C)C[C@@H]1NC(=O)[C@H](CO)N(C)C(=O)[C@H](CC(C)C)N(C)C(=O)[C@H](CC(C)C)N(C)C(=O)[C@H](CC(C)C)N(C)C(=O)[C@@H](C)NC(=O)[C@H](C)NC(=O)[C@H](CC(C)C)N(C)C(=O)C[C@H](C)NC(=O)[C@H](CC(C)C)N(C)C(=O)CN(C)C1=O [DP-649] (cyclo(A[dA][NMeL][NMeL][NMeL][NMeS]L[Sar][NMeL][β3hA][NMeL])) | 22 ×10⁻⁶ cm/s | 27 µL/min/mg
CC[C@@H]1NC(=O)[C@H](CO)N(C)C(=O)[C@H](CC(C)C)N(C)C(=O)[C@H](CC(C)C)N(C)C(=O)[C@H](CC(C)C)N(C)C(=O)[C@@H](CC(C)C)NC(=O)[C@H](C)NC(=O)[C@H](CC(C)C)N(C)C(=O)[C@H](C)NC(=O)[C@H](CC(C)C)N(C)C(=O)C[C@H](C)NC1=O [DP-650] (cyclo(A[NMeL]A[dL][NMeL][NMeL][NMeL][NMeS][Abu][β3hA][NMeL])) | 26 ×10⁻⁶ cm/s | 33 µL/min/mg
CC[C@@H]1NC(=O)C[C@H](C)NC(=O)[C@H](CC(C)C)N(C)C(=O)[C@H](CC(C)C)N(C)C(=O)[C@H](CC(C)C)N(C)C(=O)[C@@H](C)NC(=O)[C@H](CO)NC(=O)[C@H](CC(C)C)N(C)C(=O)[C@H](CC(C)C)NC(=O)[C@H](CC(C)C)N(C)C(=O)CN(C)C1=O [DP-651] (cyclo([Abu][Sar][NMeL]L[NMeL]S[dA][NMeL][NMeL][NMeL][β3hA])) | 24 ×10⁻⁶ cm/s | 68 µL/min/mg
CC(C)C[C@@H]1NC(=O)[C@H](CO)N(C)C(=O)C[C@H](C)NC(=O)[C@H](CC(C)C)N(C)C(=O)[C@H](CC(C)C)N(C)C(=O)[C@@H](C)NC(=O)[C@H](C(C)C)NC(=O)[C@H](CC(C)C)N(C)C(=O)[C@H](C(C)C)NC(=O)[C@H](CC(C)C)N(C)C(=O)CN(C)C1=O [DP-652] (cyclo(L[Sar][NMeL]V[NMeL]V[dA][NMeL][NMeL][β3hA][NMeS])) | 30 ×10⁻⁶ cm/s | 51 µL/min/mg
CC(C)C[C@@H]1NC(=O)[C@H](CC(C)C)N(C)C(=O)[C@H](C(C)C)NC(=O)[C@H](CC(C)C)N(C)C(=O)CN(C)C(=O)[C@H](C(C)C)NC(=O)[C@H](CO)N(C)C(=O)[C@H](CC(C)C)N(C)C(=O)C[C@H](C)NC(=O)[C@H](CC(C)C)N(C)C(=O)[C@@H](C)NC1=O [DP-653] (cyclo(L[dA][NMeL][β3hA][NMeL][NMeS]V[Sar][NMeL]V[NMeL])) | 33 ×10⁻⁶ cm/s | 235 µL/min/mg
CC[C@@H]1NC(=O)[C@H](CO)N(C)C(=O)[C@H](CC(C)C)N(C)C(=O)[C@H](CC(C)C)N(C)C(=O)[C@H](CC(C)C)N(C)C(=O)[C@@H](C)NC(=O)[C@H](C)NC(=O)[C@H](CC(C)C)N(C)C(=O)[C@H](CC)NC(=O)[C@H](CC(C)C)N(C)C(=O)C[C@@H](C(F)(F)F)NC1=O [DP-655] (cyclo(A[dA][NMeL][NMeL][NMeL][NMeS][Abu][X2][NMeL][Abu][NMeL])) | 34 ×10⁻⁶ cm/s | 62 µL/min/mg
CC(C)C[C@@H]1NC(=O)[C@H](CO)N(C)C(=O)C[C@@H](C(F)(F)F)NC(=O)[C@H](CC(C)C)N(C)C(=O)[C@H](CC(C)C)N(C)C(=O)[C@@H](C)NC(=O)[C@H](C)NC(=O)[C@H](CC(C)C)N(C)C(=O)[C@H](CC(C)C)NC(=O)[C@H](CC(C)C)N(C)C(=O)CN(C)C1=O [DP-657] (cyclo(A[dA][NMeL][NMeL][X2][NMeS]L[Sar][NMeL]L[NMeL])) | 24 ×10⁻⁶ cm/s | 157 µL/min/mg
CC(C)C[C@H](NC(=O)[C@H](Cc1ccccc1)N(C)C(=O)[C@@H]1CC(=O)N[C@H](C)C(=O)N[C@@H](C(C)C)C(=O)N(C)[C@@H](Cc2ccccc2)C(=O)N(C)[C@@H](CC(C)C)C(=O)N(C)[C@@H](C)C(=O)N[C@@H]([C@@H](C)O)C(=O)N[C@@H](Cc2ccccc2)C(=O)N1)C(=O)N[C@@H](C)C(=O)N1CCCCC1 [DP-658] ([dA]V[NMeF][NMeL][NMeA]TFD[NMeF]LA-Piperidide; lactam N-8) | 32 ×10⁻⁶ cm/s | 86 µL/min/mg
CC[C@H](C)[C@@H]1NC(=O)[C@H](CC(C)C)N(C)C(=O)CN(C)C(=O)[C@H]([C@@H](C)O)NC(=O)[C@H](C)N(C)C(=O)C[C@@H](C(=O)N(C)[C@@H](C)C(=O)N[C@@H](CC(C)C)C(=O)N[C@H](C(=O)N(C)[C@@H](C)C(=O)N[C@@H](C)C(=O)N2CCCCC2)C(C)C)NC(=O)[C@H](CC(C)C)N(C)C(=O)[C@H](Cc2ccccc2)N(C)C(=O)[C@H](CC(C)C)N(C)C1=O [DP-659] ([NMeA]T[Sar][NMeL]I[NMeL][NMeF][NMeL]D[NMeA]LV[NMeA]A-Piperidide; lactam N-9) | 22 ×10⁻⁶ cm/s | 13 µL/min/mg
CC[C@H](C)[C@@H]1NC(=O)[C@H](CC(C)C)N(C)C(=O)CN(C)C(=O)[C@H]([C@@H](C)O)NC(=O)[C@H](C)N(C)C(=O)C[C@@H](C(=O)N(C)[C@@H](Cc2ccccc2)C(=O)N(C)[C@@H](C)C(=O)N[C@H](C(=O)N[C@@H](C)C(=O)N2CCCCC2)C(C)C)NC(=O)[C@H](CC(C)C)N(C)C(=O)[C@H](Cc2ccccc2)N(C)C(=O)[C@H](CC(C)C)N(C)C1=O [DP-660] ([NMeA]T[Sar][NMeL]I[NMeL][NMeF][NMeL]D[NMeF][NMeA]VA-Piperidide; lactam N-9) | 27 ×10⁻⁶ cm/s | 222 µL/min/mg
